Assay results reported in patent US12275734B1, “Pleuromutilin onium salt derivative containing a 3H-imidazo[4,5-c]pyridine side chain, and a preparation method and application thereof” (SHAANXI UNIVERSITY OF SCIENCE AND TECHNOLOGY, priority 2024, dated 2025).
Converted amounts (≈) assume the structure as drawn.

What was measured:
A549 Cells = assay: Cytotoxicity, Cell Counting Kit-8; format: cell-based; settings: human, 24 h
Protocol: (§1) Cell Counting Kit-8 was used to evaluate the cytotoxicity of the compounds.
(§2) (4) Cell culture: HepG2, HEK293 and A549 cells were evenly dispersed in culture medium, seeded into 96-well plates, and cultured under appropriate environmental conditions to keep the cells completely attached to the well walls.
(§3) (5) Compound treatment: Add different concentrations of compounds I-8 and I-9 to each well (the concentrations are 0.78, 1.56, 3.13, 6.25, 12.5, 25, 50 and 100 μM, respectively, and perform 6 parallel experiments). Set up a blank control group and a normal control group. After incubation for 24 hours, observe the cell condition, which observed under a microscope.
(§4) (6) CCK-8 solution treatment: Add CCK-8 solution to each well and incubate for 4 hours to allow it to react with the cells.
(§5) (7) Absorbance determination: Use a full-wavelength scanning multifunctional reader, place the 96-well plate in the instrument, oscillate to mix to make the color evenly distributed, and measure the absorbance value at 490 nm.
(§6) (8) Data analysis: Based on the measured absorbance values, the cell survival rate at different concentrations can be calculated. The median cytotoxic concentration was used to evaluate the cytotoxicity of the compound to A549, HEK293 and HepG2 cells.

HEK293 Cells = assay: Cytotoxicity, Cell Counting Kit-8; format: cell-based; settings: human, 24 h
Protocol: as §1, §2, §3, §4, §5, §6

HepG2 Cells = assay: Cytotoxicity, Cell Counting Kit-8; format: cell-based; settings: human, 24 h
Protocol: as §1, §2, §3, §4, §5, §6

[1] = tested on: Staphylococcus aureus (MRSA, ATCC 33591); assay: Mouse MRSA systemic infection model, survival rate; format: in vivo; settings: MRSA-infected mice, 5, 10, 20 mg/kg single intraperitoneal injection 1 hour after infection, 7-day survival
Protocol: (§7) Establishment of a mouse model of MRSA systemic infection
(1) Solution preparation and bacterial activation: Reference Example 15.
(§8) (2) Pretreatment: All mice received cyclophosphamide treatment, with the first intraperitoneal injection of 150 mg/kg cyclophosphamide 4 days before infection and the second intraperitoneal injection of 100 mg/kg cyclophosphamide 1 day before infection.
(3) Control group treatment: Mice in the blank control group received intraperitoneal injection of 0.9% saline.
(4) Infection process: Mice were anesthetized with isoflurane and infected by intraperitoneal injection of Staphylococcus aureus (MRSA, ATCC 33591) at a concentration of 10^7 CFU/mL.
(1) Experimental groups: The doses of compound i and valnemulin were 5, 10, and 20 mg/kg, respectively (the solvent was dimethyl sulfoxide: Tween-80: sterile water=1:0.5:9.5);
A model control group (administered with a solvent after infection with bacteria) and a blank control group (administered with a solvent only without infection with bacteria) were set up, with 10 mice in each group, half of which were male and half were female.
(2) Time point: Intraperitoneal injection was performed in the experimental group mice at 1 hour after infection.
(3) Therapeutic dose: The mice in the experimental groups received intraperitoneal injection of 0.5 mL of compound i and valnemulin at different concentrations. […]

[2] = tested on: Staphylococcus aureus (MRSA, ATCC 33591); assay: Mouse MRSA systemic infection model, H&E tissue sections; format: in vivo; settings: MRSA-infected mice
Protocol: as §7, §8
(4) Infection process: Mice were anesthetized with isoflurane and infected by intraperitoneal injection of Staphylococcus aureus (MRSA, ATCC 33591) at a concentration of 10^7 CFU/mL. […]
(2) Processing: • (a) Time point: At the first hour after infection, mice in the experimental group received intraperitoneal injection of 0.5 mL of compounds of different concentrations, while mice in the control group received the same volume of solvent. • (b) Treatment time: […]
Part II: The samples were fixed with 10% formalin buffer, then embedded in paraffin and sectioned. The sections were stained with hematoxylin and eosin (H&E) and then examined under an optical microscope.

E. coli ATCC 25922 = assay: MIC, broth microdilution; format: cell-based; settings: Escherichia coli, ATCC25922, read-out: Minimum inhibitory concentration E.c.^h
Protocol: (§9) The minimum inhibitory concentration of 3H-imidazo[4,5-C]pyridine pleuromutilin onium salt derivatives against the tested pathogenic microorganisms were determined by broth microdilution method, with valnemulin and retapamulin as positive controls.
(§10) The experimental strains included resistant Gram-positive bacteria: Methicillin-resistant S. aureus ATCC 33591; Methicillin-resistant S. aureus ATCC 43300; S. aureus ATCC 29213; Methicillin-resistant S. epidermidis ATCC 51625. Resistant Gram-negative bacteria: A. baumannii ATCC 19606; S. enterica ATCC14028; E. coli ATCC 25922; E. coli CMCC 44103. 9 clinically isolated resistant strains: MRSA-171; MRSA-575; MRSA-206; MRSA-222; MRSA-596; VRE-80; MDR-PA-126; MDR-KP-893; CR-AB-882.
(§11) (1) Preparation of MHB medium: Weigh 18.0 g of MHB medium pre-made powder, add it to 1 L of distilled water, heat and boil until completely dissolved, divide it into conical bottles, sterilize it by high pressure at 121° C. for 15 minutes, and set aside.
(§12) (2) Cultivate the experimental strain to the logarithmic growth phase: Under sterile conditions, inoculate the experimental strain into fresh MHB medium and culture it in a 37° C. constant temperature and humidity incubator for 16-24 hours. Adjust the bacterial solution concentration to 1.5×10^8 CFU/mL and then dilute it 200 times for later use.
(§13) (3) Preparation of storage solution: Weigh the sample to be tested, dissolve it in 1% DMSO solution, and prepare a storage solution with a concentration of 2560 μg/mL; weigh the positive control, dissolve it in sterile distilled water, and prepare a storage solution with a concentration of 2560 μg/mL.
(§14) (4) Preparation of bacterial suspension: Under sterile conditions, the experimental strain cultured to the logarithmic growth phase was calibrated to a 0.5 McFarland unit turbidity standard using MHB medium and then diluted at a ratio of 1:200 to prepare a bacterial suspension with a concentration of 5×10^5 CFU/mL for later use.
(§15) (5) Determination of MIC by two-fold microdilution method: Take a sterile 96-well plate, add 10 μL of the test compound at a concentration of 2560 μg/mL, and perform serial dilutions by the two-fold dilution method. At the same time, set up a negative control group without drug. Then add 190 μL of diluted bacterial solution to each well, so that the final bacterial solution concentration in each well is 5×10^5 CFU/mL, and incubate in a 37° C. constant temperature and humidity chamber for 24 hours.

S. enterica ATCC14028 = assay: MIC, broth microdilution; format: cell-based; settings: Salmonella enterica, ATCC14028, read-out: Minimum inhibitory concentration S.e.^g
Protocol: as §9, §10, §11, §12, §13, §14, §15

[3] = tested on: Methicillin-resistant S. epidermidis ATCC 51625; assay: MIC, broth microdilution; format: cell-based; settings: Staphylococcus epidermidis, ATCC 51625 / MRSE, read-out: Minimum inhibitory concentration MRSE^e
Protocol: as §9, §10, §11, §12, §13, §14, §15

[4] = tested on: Methicillin-resistant S. aureus ATCC 33591; assay: MIC, broth microdilution; format: cell-based; settings: Staphylococcus aureus, ATCC 33591 / MRSA, read-out: Minimum inhibitory concentration MRSA^b
Protocol: as §9, §10, §11, §12, §13, §14, §15

A. baumannii ATCC 19606 = assay: MIC, broth microdilution; format: cell-based; settings: Acinetobacter baumannii, ATCC19606, read-out: Minimum inhibitory concentration A.b.^f
Protocol: as §9, §10, §11, §12, §13, §14, §15

S. aureus ATCC 29213 = assay: MIC, broth microdilution; format: cell-based; settings: Staphylococcus aureus, ATCC29213, read-out: Minimum inhibitory concentration S.a.^d
Protocol: as §9, §10, §11, §12, §13, §14, §15

E.coli CMCC 44103 = assay: MIC, broth microdilution; format: cell-based; settings: Escherichia coli, CMCC44103, read-out: Minimum inhibitory concentration E.c.^i
Protocol: as §9, §10, §11, §12, §13, §14, §15

[5] = tested on: Methicillin-resistant S. aureus ATCC 43300; assay: MIC, broth microdilution; format: cell-based; settings: Staphylococcus aureus, ATCC 43300 / MRSA, read-out: Minimum inhibitory concentration MRSA^c
Protocol: as §9, §10, §11, §12, §13, §14, §15

[6] = 5 mg/kg compound i, intraperitoneal

## C=C[C@]1(C)C[C@@H](OC(=O)CSC(C)(C)CNC(=O)[C@H](N)C(C)C)[C@]2(C)[C@H](C)CC[C@]3(CCC(=O)[C@H]32)[C@@H](C)[C@@H]1O [Valnemulin, reference compound]
A549 Cells
  CC50: 53.7 µM
HEK293 Cells
  CC50: 65.4 µM
HepG2 Cells
  CC50: 77.3 µM
[1]
  survival rate of mice: improved
[2]; [6]
  kidney H&E histology: inflammatory cell infiltration was still observed
  liver H&E histology: still had inflammatory cell infiltration
  lung H&E histology: alleviated, but they still did not return to normal
[2]; 5 mg/kg, after 7 days of treatment
  spleen H&E histology: immune response was weakened
E. coli ATCC 25922
  MIC: 16 µg/mL (≈ 28.3 µM)
S. enterica ATCC14028
  MIC: 64 µg/mL (≈ 113 µM)
[3]
  MIC: 64 µg/mL (≈ 113 µM)
[4]
  MIC: 64 µg/mL (≈ 113 µM)
A. baumannii ATCC 19606
  MIC: 2 µg/mL (≈ 3.54 µM)
S. aureus ATCC 29213
  MIC: 4 µg/mL (≈ 7.08 µM)
E.coli CMCC 44103
  MIC: 64 µg/mL (≈ 113 µM)
[5]
  MIC: 8 µg/mL (≈ 14.2 µM)
